Test results from US4587248A, “4-alkyl-thiophenyl-ethanolamines, having an activity the cerebral circulation, the blood platelet-aggregation and the lipenia” (priority 1981, dated 1986).
Where two headings read alike, the source gives them in different places.

Tests used:
in vivo = conditions: mouse, ip
[1] = tested on: isolated intestines of Guinea pigs; assay: spasmolytic activity in vitro on isolated intestines of Guinea pigs
[2] = tested on: depolarized aorta of rats; assay: contraction-promoting effect of bivalent calcium ions on the depolarized aorta of rats (Godfraind and Kaba 1972)
[3] = tested on: contractions caused by norepinephrine on the deferent duct; assay: contractions caused by norepinephrine on the deferent duct (Barnett et al)
[4] = tested on: isolated intestines of rats; assay: spasmolytic activity in vitro on isolated intestines of rats
isolated rat aorta = assay: contractions of isolated rat aorta (Godfraind and Kaba 1969)
mice = conditions: for Slope (fiducial limits): LD50, mice; for LD50, fiducial limits / LD50, fiducial limits (micromol/kg equivalent): mice; for LD50, fiducial limits (micromol/kg equivalent): in brackets
rats = conditions: for LD50, fiducial limits / LD50, fiducial limits (micromol/kg equivalent): rats; for Slope (fiducial limits): LD50, rats; for LD50, fiducial limits (micromol/kg equivalent): in brackets

CC(C)Sc1ccc([C@@H](O)[C@H](C)N2CCN(C(=O)C=Cc3ccccc3)CC2)cc1 (relative stereo) [Compound 1]
LD50 (in vivo): 920 mg/kg

CC(C)Sc1ccc(C(O)C(C)NC2CCC(c3ccccc3)CC2)cc1 (centres unmarked) [Compound 13]
LD50 (in vivo): 150 mg/kg

COc1cc(C=CCN2CCN(C(C)C(O)c3ccc(SC(C)C)cc3)CC2)cc(OC)c1OC (centres unmarked) [Compound 5]
LD50 (in vivo): 75 mg/kg

CC(C)Sc1ccc(C(O)C(C)Nc2ccc(C3CCCCC3)cc2)cc1 (centres unmarked) [Compound 9]
LD50 (in vivo): > 400 mg/kg

CC(C)Sc1ccc(C(O)C(C)NC2CCCCC2c2ccccc2)cc1 (centres unmarked) [Compound 11]
LD50 (in vivo): > 400 mg/kg

CC(C)Sc1ccc(C(O)C(C)N2CCN(CC=Cc3ccccc3)CC2)cc1 (centres unmarked) [Compound 4]
LD50 (in vivo): 300 mg/kg

COc1cc(C=CC(=O)N2CCN(C(C)C(O)c3ccc(SC(C)C)cc3)CC2)cc(OC)c1OC (centres unmarked) [Compound 3]
LD50 (in vivo): > 400 mg/kg

CC(C)Sc1ccc([C@@H](O)[C@@H](C)N2CCN(C(=O)C=Cc3ccccc3)CC2)cc1 (relative stereo) [1-(4-isopropylthiophenyl)-2-(4-cinnamoyl-piperazine-1-yl)-1-propanol]
spasmolytic activity [1]: considerable spasmolytic activity
inhibition of the contraction-promoting effect of bivalent calcium ions on the depolarized aorta [2]: has been inhibited
inhibition of contractions caused by norepinephrine on the deferent duct [3]: inhibit the contractions caused by norepinephrine
spasmolytic activity [4]: considerable spasmolytic activity
inhibition of contractions of isolated rat aorta (isolated rat aorta): inhibit the contractions of isolated rat aorta

CC(C)Sc1ccc([C@@H](O)[C@@H](C)N2CCN(C(=O)C=Cc3ccccc3)CC2)cc1 (relative stereo) [Compound 2]
LD50 (in vivo): > 4000 mg/kg

CC(C)Sc1ccc([C@@H](O)[C@H](C)N2CCN(C(=O)C=Cc3ccccc3)CC2)cc1 (relative stereo) [1-(4-isopropylthiophenyl)-2-(4-cinnamoyl-piperazine-1-yl)-1-propanol]
spasmolytic activity [1]: considerable spasmolytic activity
inhibition of the contraction-promoting effect of bivalent calcium ions on the depolarized aorta [2]: has been inhibited
Slope (fiducial limits) (mice; intraperitoneally): 1.36 (1.14-1.47)
Slope (fiducial limits) (mice; orally): 1.25 (1.10-1.42)
LD50, fiducial limits (mice; intraperitoneally (TABLE 2)): 782-1082 mg/kg b.w.
LD50, fiducial limits (micromol/kg equivalent) (mice; intraperitoneally (TABLE 2)): 1842 to 2548 µmol/kg
LD50, fiducial limits (mice; orally (TABLE 2)): 3166-4208 mg/kg b.w.
LD50, fiducial limits (micromol/kg equivalent) (mice; orally (TABLE 2)): 6867 to 9127 µmol/kg
inhibition of contractions caused by norepinephrine on the deferent duct [3]: inhibit the contractions caused by norepinephrine
spasmolytic activity [4]: considerable spasmolytic activity
inhibition of contractions of isolated rat aorta (isolated rat aorta): inhibit the contractions of isolated rat aorta

CC(C)Sc1ccc(C(O)C(C)Nc2cccc(C3CCCCC3)c2)cc1 (centres unmarked) [Compound 8]
LD50 (in vivo): 500 mg/kg

CC(C)Sc1ccc(C(O)C(C)Nc2ccccc2C2CCCCC2)cc1 (centres unmarked) [Compound 7]
LD50 (in vivo): > 400 mg/kg

CC(C)Sc1ccc(C(O)C(C)Nc2ccccc2)cc1 (centres unmarked) [Compound 6]
LD50 (in vivo): 400 mg/kg

Fc1ccc(C(c2ccc(F)cc2)N2CCN(C/C=C/c3ccccc3)CC2)cc1 [Flunarizine]
LD50, fiducial limits (mice; intraperitoneally (TABLE 2)): 325-386 mg/kg b.w.
LD50, fiducial limits (mice; orally (TABLE 2)): 498-687 mg/kg b.w.
LD50, fiducial limits (rats; intraperitoneally (TABLE 2)): 332-543 mg/kg b.w.
LD50, fiducial limits (rats; orally (TABLE 2)): 1714-2773 mg/kg b.w.

CCCCCCCCNC(C)C(O)c1ccc(SC(C)C)cc1 (centres unmarked) [Suloctidil]
Slope (fiducial limits) (mice; intraperitoneally): 1.55 (1.33-1.82)
Slope (fiducial limits) (mice; orally): 1.24 (1.18-1.30)
LD50, fiducial limits (mice; intraperitoneally (TABLE 2)): 26.8-39.4 mg/kg b.w.
LD50, fiducial limits (micromol/kg equivalent) (mice; intraperitoneally (TABLE 2)): 70.4 to 116.7 µmol/kg
LD50, fiducial limits (mice; orally (TABLE 2)): 2016-2511 mg/kg b.w.
LD50, fiducial limits (micromol/kg equivalent) (mice; orally (TABLE 2)): 5972 to 7439 µmol/kg
Slope (fiducial limits) (rats; intraperitoneally): 1.86 (1.42-2.44)
Slope (fiducial limits) (rats; orally): 1.18 (1.13-1.22)
LD50, fiducial limits (rats; intraperitoneally (TABLE 2)): 32-69 mg/kg b.w.
LD50, fiducial limits (micromol/kg equivalent) (rats; intraperitoneally (TABLE 2)): 94.8 to 204.4 µmol/kg
LD50, fiducial limits (rats; orally (TABLE 2)): 1603-1976 mg/kg b.w.
LD50, fiducial limits (micromol/kg equivalent) (rats; orally (TABLE 2)): 4749 to 5854 µmol/kg
LD50 (in vivo): 32.5 mg/kg
